In brackets after ≈: the same amount, converted by molar mass.

The text below walks through data of ChEMBL document CHEMBL4219230, “Design, synthesis and biological evaluation of novel 4-phenylisoquinolinone BET bromodomain inhibitors” (Bioorg Med Chem Lett, 2018).

The nature of one data set: physchem. The settings on record: buffer, pH 7.4.
Data set [1] is described as follows: Protein binding in human plasma. It is filed as ADME, cell-free. The settings on record: read-out: PPB (converted).
A short description of data set [2]: in vitro. Conditions: dog, MDCK-MDR1.
Description: Permeability across apical to basolateral side in MDCK cells expressing MDR1
The nature of data set [3]: in vitro. Conditions: mouse.
Description: Half life in mouse liver microsomes
A further data set is described as follows: in vivo. The settings on record: CD1, mouse, po, 10 mg/kg.
Data set [4] can be described thus: Protein binding in mouse plasma. The data set is classed as ADME, cell-free. Conditions: read-out: PPB (converted).

Description for physchem: Solubility of the compound at pH 7.4

For `CCOc1ccc(S(=O)(=O)CC)cc1-c1cn(C)c(=O)c2ccc(-c3cnn(C)c3)cc12`, the solubility in the data set “physchem” came to 12 µg/mL (≈ 26.6 µM). Besides, the fraction unbound in data set [1] was 0.12; in data set [4] it was 0.14. Moreover, in the data set “in vitro [2]”, the Papp A→B was 6 ×10⁻⁶ cm/s. Besides, the half-life in “in vitro [3]” (liver microsomes) was > 3.33 h. Moreover, the AUC(0-t) at 6 h in the data set “in vivo” is 11400 ng·h/mL.
`CCNC(=O)C[C@@H]1N=C(c2ccc(Cl)cc2)c2cc(OC)ccc2-n2c(C)nnc21` [MOLIBRESIB] came in with a half-life in “in vitro [3]” (microsomes) of 1.58 h.

In general, solubility refers to the dissolved amount per volume that the medium holds. Lower therefore signals little dissolved substance. What is called Papp A→B is how fast a substance crosses the layer from the apical side. A high value points to fast passage. For orientation: half-life means the time in which the quantity being followed falls by half. A lower half-life goes with rapid decline. The AUC(0-t) is exposure summed from dosing to a finite time, without extrapolation to infinity. A high value points to more exposure.
